Measured values taken from ChEMBL document CHEMBL1121476, “Diaryl amidine derivatives as oncornaviral DNA polymerase inhibitors” (J Med Chem, 1980).
Converted amounts (≈) assume the structure as drawn.

Tested on: Nucleic Acid
Experiment: Compound was evaluated for 50% inhibitory dose against oncornaviral DNA polymerase activity of moloney murine leukemia virus
Format: functional

Question: For N=C(N)c1ccc(/N=N/Nc2ccc(C(=N)N)cc2)cc1, which ID50 is on record?
Answer: The ID50 was 11 µg/mL (≈ 39.1 µM).

Target: Gag-Pol polyprotein (Moloney murine leukemia virus isolate Shinnick) (UniProt P03355)
Description: Inhibitory dose against oncornaviral DNA polymerase activity of moloney murine leukemia virus

Question: Which ID50 does the source give for N=C(N)Nc1ccc(-c2cc3cc(NC(=N)N)ccc3o2)cc1 here?
Answer: The ID50 was 8 µg/mL (≈ 25.9 µM).

Question: How did the ID50 turn out when N=C(N)c1cccc(-c2cc3ccc(C(=N)N)cc3[nH]2)c1 was run?
Answer: Its ID50 is 8 µg/mL (≈ 28.8 µM).

Question: How did the ID50 turn out when N=C(N)c1ccc(-c2c[nH]c(-c3ccc(C(=N)N)cc3)n2)cc1 was run?
Answer: The ID50 was 10 µg/mL (≈ 32.9 µM).

Question: Which ID50 does the source give for N=C(N)c1ccc2[nH]c(/C=C/c3nc4cc(C(=N)N)ccc4[nH]3)nc2c1 here?
Answer: Its ID50 is 100 µg/mL (≈ 290 µM).

Question: Which ID50 does the source give for N=C(N)c1ccc(-c2cc3cc(C(=N)N)ccc3s2)cc1 here?
Answer: The ID50 was 5 µg/mL (≈ 17 µM).

Question: For N=C(N)c1ccc2c(c1)[nH]c1c3cc(C(=N)N)ccc3sc21, which ID50 is on record?
Answer: The ID50 was 1.2 µg/mL (≈ 3.9 µM).

Question: Which ID50 does the source give for N=C(N)c1ccc2oc(CCc3cc4cc(C(=N)N)ccc4o3)cc2c1 here?
Answer: The ID50 was 12 µg/mL (≈ 34.6 µM).

Question: Which ID50 does the source give for N=C(N)c1ccc2cc(C(=N)N)[nH]c2c1 here?
Answer: Its ID50 is 70 µg/mL (≈ 348 µM).

Question: With N=C(N)c1ccc2oc(-c3c[nH]c(-c4cc5cc(C(=N)N)ccc5o4)n3)cc2c1 as the compound, how does the ID50 read?
Answer: The ID50 was 2 µg/mL (≈ 5.2 µM).

Question: N=C(N)c1ccc2sc(/C=C/c3cc4cc(C(=N)N)ccc4s3)cc2c1 was tested. Which ID50 did it give?
Answer: Its ID50 is 11 µg/mL (≈ 29.2 µM).

Question: Which ID50 does the source give for N=C(N)c1ccc(-c2[nH]c3cc(C(=N)N)ccc3c2N)cc1 here?
Answer: The ID50 was 12 µg/mL (≈ 41 µM).

Question: How did the ID50 turn out when c1cc(-c2cc3ccc(C4=NCCN4)cc3[nH]2)ccc1C1=NCCN1 was run?
Answer: Its ID50 is 6 µg/mL (≈ 18.2 µM).

Question: Which ID50 does the source give for N=C(N)c1ccc(-c2cc3ccc(C(=N)N)cc3s2)cc1 here?
Answer: The ID50 was 4 µg/mL (≈ 13.6 µM).

Question: How did the ID50 turn out when N=C(N)c1ccc(/C=C/c2cc3cc(C(=N)N)ccc3o2)cc1 was run?
Answer: The ID50 was 8 µg/mL (≈ 26.3 µM).

Question: C(=C\c1cc2cc(C3=NCCN3)ccc2o1)/c1ccc(C2=NCCN2)cc1 was tested. Which ID50 did it give?
Answer: Its ID50 is 6 µg/mL (≈ 16.8 µM).

Question: c1cc(Oc2ccc(-c3cc4ccc(C5=NCCN5)cc4[nH]3)cc2)cc(C2=NCCN2)c1 was tested. Which ID50 did it give?
Answer: The ID50 was 3 µg/mL (≈ 7.12 µM).

Question: N=C(N)c1ccc2oc(-c3ccc(N)cc3)cc2c1 was tested. Which ID50 did it give?
Answer: Its ID50 is 270 µg/mL (≈ 1070 µM).

Question: For C(=C\c1cc2ccc(C3=NCCN3)cc2[nH]1)/c1ccc(Oc2ccc(C3=NCCN3)cc2)cc1, which ID50 is on record?
Answer: The ID50 was 1.6 µg/mL (≈ 3.58 µM).

Question: How did the ID50 turn out when N=C(N)c1ccc(CCc2cc3cc(C(=N)N)ccc3o2)cc1 was run?
Answer: The ID50 was 120 µg/mL (≈ 392 µM).

Question: N=C(N)c1ccc2oc(/C=C/c3cc4ccc(C(=N)N)cc4o3)cc2c1 was tested. Which ID50 did it give?
Answer: The ID50 was 1.2 µg/mL (≈ 3.48 µM).

Question: For N=C(N)c1cccc(-c2cc3cc(C(=N)N)ccc3s2)c1, which ID50 is on record?
Answer: The ID50 was 6 µg/mL (≈ 20.4 µM).

Question: With N=C(N)c1ccc(-c2ccc(-c3ccc(C(=N)N)cc3)s2)cc1 as the compound, how does the ID50 read?
Answer: The ID50 was 1.2 µg/mL (≈ 3.75 µM).

Question: N=C(N)c1ccc(Oc2ccc(/C=C/c3cc4ccc(C(=N)N)cc4[nH]3)cc2)cc1 was tested. Which ID50 did it give?
Answer: Its ID50 is 1.4 µg/mL (≈ 3.54 µM).

Question: Which ID50 does the source give for C/C(=C\c1cc2cc(C(=N)N)ccc2o1)c1cc2cc(C(=N)N)ccc2o1 here?
Answer: The ID50 was 14 µg/mL (≈ 39.1 µM).

Question: How did the ID50 turn out when N=C(N)c1ccc(N/N=N/c2ccc(-c3cc4cc(C(=N)N)ccc4o3)cc2)cc1 was run?
Answer: The ID50 was 1.3 µg/mL (≈ 3.27 µM).

Question: How did the ID50 turn out when N=C(N)c1cccc(-c2cc3cc(C(=N)N)ccc3[nH]2)c1 was run?
Answer: Its ID50 is 4 µg/mL (≈ 14.4 µM).

Question: Which ID50 does the source give for C(=C\c1cc2cc(C3=NCCN3)ccc2o1)/c1cc2cc(C3=NCCN3)ccc2o1 here?
Answer: Its ID50 is 1.1 µg/mL (≈ 2.77 µM).

Question: How did the ID50 turn out when N=C(N)c1ccc(-c2cc3ccc(C(=N)N)cc3[nH]2)cc1 was run?
Answer: Its ID50 is 5 µg/mL (≈ 18 µM).

Question: Which ID50 does the source give for N=C(N)c1ccc(-c2nnc(-c3ccc(C(=N)N)cc3)o2)cc1 here?
Answer: The ID50 was 28 µg/mL (≈ 91.4 µM).

Question: How did the ID50 turn out when N=C(N)c1ccc(Oc2ccc(-c3cc4ccc(C(=N)N)cc4[nH]3)cc2)cc1 was run?
Answer: The ID50 was 250 µg/mL (≈ 677 µM).

Question: Which ID50 does the source give for N=C(N)c1ccc2oc(/C=C/C=C/C=C/c3cc4cc(C(=N)N)ccc4o3)cc2c1 here?
Answer: The ID50 was 1.6 µg/mL (≈ 4.04 µM).

Question: How did the ID50 turn out when c1cc(C2=NCCN2)ccc1Oc1ccc(-c2cc3ccc(C4=NCCN4)cc3[nH]2)cc1 was run?
Answer: The ID50 was 1.4 µg/mL (≈ 3.32 µM).

Question: For N=C(N)c1ccc2oc(/C=C/C=C/c3cc4cc(C(=N)N)ccc4o3)cc2c1, which ID50 is on record?
Answer: Its ID50 is 3 µg/mL (≈ 8.1 µM).

Question: Which ID50 does the source give for N=C(N)c1ccc(/C=C/c2ccc(C(=N)N)cc2)cc1 here?
Answer: The ID50 was 12 µg/mL (≈ 45.4 µM).

Question: For N=C(N)c1ccc2oc(C(=O)Nc3ccc(C4=NCCN4)cc3)cc2c1, which ID50 is on record?
Answer: Its ID50 is 10 µg/mL (≈ 28.8 µM).

Question: How did the ID50 turn out when N=C(N)c1ccc(OCCCCCOc2ccc(C(=N)N)cc2)cc1 was run?
Answer: Its ID50 is 100 µg/mL (≈ 294 µM).

Question: For N=C(N)c1ccc(N/N=C/c2cc3cc(C(=N)N)ccc3o2)cc1, which ID50 is on record?
Answer: The ID50 was 7.5 µg/mL (≈ 23.4 µM).

Question: N=C(N)Nc1ccc(-c2cc3ccc(NC(=N)N)cc3s2)cc1 was tested. Which ID50 did it give?
Answer: Its ID50 is 6 µg/mL (≈ 18.5 µM).

Question: N=C(N)Nc1ccc(-c2cc3cc(NC(=N)N)ccc3s2)cc1 was tested. Which ID50 did it give?
Answer: Its ID50 is 11 µg/mL (≈ 33.9 µM).

Question: N=C(N)c1cccc(Oc2ccc(-c3cc4ccc(C(=N)N)cc4[nH]3)cc2)c1 was tested. Which ID50 did it give?
Answer: The ID50 was 6 µg/mL (≈ 16.2 µM).

Question: N=C(N)c1ccc(/C=C/c2cc3ccc(C(=N)N)cc3[nH]2)cc1 was tested. Which ID50 did it give?
Answer: The ID50 was 6 µg/mL (≈ 19.8 µM).

Question: Which ID50 does the source give for N=C(N)c1ccc2[nH]c(/C=C/c3cc4cc(C(=N)N)ccc4o3)cc2c1 here?
Answer: Its ID50 is 1.4 µg/mL (≈ 4.08 µM).

Question: Which ID50 does the source give for N=C(N)c1ccc(/C=C/C=C/C=C/c2cc3cc(C(=N)N)ccc3o2)cc1 here?
Answer: Its ID50 is 1.6 µg/mL (≈ 4.49 µM).

Question: Which ID50 does the source give for N=C(N)c1ccc(NC(=O)c2cc3cc(C(=N)N)ccc3o2)cc1 here?
Answer: Its ID50 is 7.5 µg/mL (≈ 23.3 µM).

Question: Which ID50 does the source give for c1cc(-c2cc3ccc(C4=NCCN4)cc3s2)ccc1C1=NCCN1 here?
Answer: The ID50 was 1.2 µg/mL (≈ 3.46 µM).

Question: For C(=C\c1cc2cc(C3=NCCN3)ccc2o1)/c1ccc(Oc2ccc(C3=NCCN3)cc2)cc1, which ID50 is on record?
Answer: The ID50 was 9 µg/mL (≈ 20.1 µM).

Question: Which ID50 does the source give for N=C(N)c1cccc(-c2cc3ccc(C(=N)N)cc3s2)c1 here?
Answer: The ID50 was 8 µg/mL (≈ 27.2 µM).

Question: How did the ID50 turn out when N=C(N)c1ccc(C2Cc3cc(C(=N)N)ccc3S2(=O)=O)cc1 (centres undefined) was run?
Answer: The ID50 was 90 µg/mL (≈ 274 µM).

Question: CC(Cc1cc2cc(C(=N)N)ccc2o1)c1cc2cc(C(=N)N)ccc2o1 (centres undefined) was tested. Which ID50 did it give?
Answer: Its ID50 is 15 µg/mL (≈ 41.6 µM).

Question: How did the ID50 turn out when N=C(N)c1ccc2[nH]c(-c3cc4cc(C(=N)N)ccc4o3)cc2c1 was run?
Answer: Its ID50 is 0.9 µg/mL (≈ 2.84 µM).

Question: For C(/C=C/c1cc2cc(C3=NCCN3)ccc2o1)=C\c1ccc(C2=NCCN2)cc1, which ID50 is on record?
Answer: Its ID50 is 4 µg/mL (≈ 10.5 µM).

Question: Which ID50 does the source give for CC[n+]1c(-c2ccccc2)c2cc(N)ccc2c2ccc(N)cc21 here?
Answer: The ID50 was 1.2 µg/mL.

Question: CCN(CC)CCOc1ccc2c(c1)C(=O)c1cc(OCCN(CC)CC)ccc1-2 was tested. Which ID50 did it give?
Answer: Its ID50 is 75 µg/mL (≈ 183 µM).

Question: N=C(N)c1ccc(-c2sc3ccc(C(=N)N)cc3c2N)cc1 was tested. Which ID50 did it give?
Answer: Its ID50 is 8 µg/mL (≈ 25.9 µM).

Question: Which ID50 does the source give for N=C(N)c1ccc2oc(/C=C/c3cc4cc(C(=N)N)ccc4s3)cc2c1 here?
Answer: The ID50 was 4 µg/mL (≈ 11.1 µM).

Question: Which ID50 does the source give for N=C(N)c1ccc2cc(/C=C/c3cc4ccc(C(=N)N)cc4o3)oc2c1 here?
Answer: Its ID50 is 1.6 µg/mL (≈ 4.65 µM).

Question: How did the ID50 turn out when N=C(N)c1ccc(-c2ccc(-c3ccc(C(=N)N)cc3)[nH]2)cc1 was run?
Answer: The ID50 was 6.5 µg/mL (≈ 21.4 µM).

Question: Which ID50 does the source give for N=C(N)c1ccc2oc(/C=C/c3cc4ccc(C(=N)N)cc4[nH]3)cc2c1 here?
Answer: Its ID50 is 1.1 µg/mL (≈ 3.2 µM).

Question: N=C(N)c1ccc(/C=C/C=C/c2cc3cc(C(=N)N)ccc3o2)cc1 was tested. Which ID50 did it give?
Answer: The ID50 was 0.9 µg/mL (≈ 2.72 µM).

Question: How did the ID50 turn out when N=C(N)c1ccc(-c2ccc(-c3ccc(C(=N)N)cc3)o2)cc1 was run?
Answer: The ID50 was 6 µg/mL (≈ 19.7 µM).

Question: For N=C(N)N/N=C/c1ccc2cc(-c3ccc(/C=N/N=C(N)N)cc3)sc2c1, which ID50 is on record?
Answer: The ID50 was 2 µg/mL (≈ 5.28 µM).

Question: For C/C(=C\c1cc2cc(C(=N)N)ccc2o1)c1ccc(C(=N)N)cc1, which ID50 is on record?
Answer: Its ID50 is 4 µg/mL (≈ 12.6 µM).

Question: With N=C(N)c1ccc(Oc2ccc(/C=C/c3cc4cc(C(=N)N)ccc4o3)cc2)cc1 as the compound, how does the ID50 read?
Answer: Its ID50 is 14 µg/mL (≈ 35.3 µM).

Question: With C(/C=C/c1cc2cc(C3=NCCN3)ccc2o1)=C\c1cc2cc(C3=NCCN3)ccc2o1 as the compound, how does the ID50 read?
Answer: The ID50 was 1 µg/mL (≈ 2.37 µM).

Question: For Cc1c(/C=C/c2oc3ccc(C(=N)N)cc3c2C)oc2ccc(C(=N)N)cc12, which ID50 is on record?
Answer: The ID50 was 8 µg/mL (≈ 21.5 µM).

Question: For O=C(Nc1ccc(C2=NCCN2)cc1)c1ccc(C(=O)Nc2ccc(C3=NCCN3)cc2)cc1, which ID50 is on record?
Answer: The ID50 was 200 µg/mL (≈ 442 µM).

Question: For c1cc(-c2cc3cc(C4=NCCN4)ccc3s2)ccc1C1=NCCN1, which ID50 is on record?
Answer: The ID50 was 2.8 µg/mL (≈ 8.08 µM).

Question: Which ID50 does the source give for CN(C)/C=N/c1ccc(-c2cc3cc(/N=C/N(C)C)ccc3o2)cc1 here?
Answer: The ID50 was 40 µg/mL (≈ 120 µM).
